Results on three molecules are retold here after patent US7439251B2, “Methods and compositions for treatment of central and peripheral nervous system disorders and novel compounds useful therefor” (Israel Institute for Biological Research, priority 2002, dated 2008).

Data set [1] can be described thus: Social memory (olfactory recognition) in naive rats. Type of data set: in vivo, rat. The conditions noted are these: 0.5, 1 and 5 mg/kg p.o., vs placebo, dose-dependent. On the procedure: Animals were kept at 21° C.±1, with an inverse light-dark cycle (light on from 2:00 P.M. to 2:00 A.M.). The sessions were conducted 7 hr into the dark part of the light/dark cycle, under red illumination. […] The time spent by the adult rat in investigating the juvenile rat was recorded. […] Thus under the influence of a purported memory enhancing drug, the time spent in investigating the same juvenile is expected to be reduced. […] Any reduction in social exploration of this different juvenile is thus considered as reflecting a nonspecific effect of the drug (i.e., not memory related). On no occasion was a subject tested twice with the same juvenile stimulus animal, nor was a juvenile used more than once in a 48-hr period. […] Time spent in social investigation of stimulus juvenile rat was measured (in sec) and then expressed for each animal as the ratio of the second exposure to the first exposure (Ratio of Investigation Duration (RID)). […] Analysis for repeated measurement was made by a 3-way ANOVA and post hoc comparisons were made by simple main effects contrasts analysis.

For data set [2] the following is noted: mouse, in vivo.
In data set [3] the test system is rat pheochromocytoma cells transfected with the M1 mAChR. The procedure: Confluent rat pheochromocytoma cells transfected with the M1 mAChR cultures were detached with trypsin, washed and plated in 24well, 6-well, 60-mm or 100-mm plates that were precoated with rat tail collagen (Sigma, Israel). Several experiments were performed in serum-free medium. For 3-(4,5-dimethylthiazol-2-yl)-2,5-diphenyl-tetrazolium bromide (MIT) assay, cells (1.5×10^4) were plated in 96-well collagen-precoated plates, in serum-free medium, with or without various drugs for 24 hours. For differentiation, cells were grown in the presence of 1% FCS and 1% HS, with addition of 50 ng/ml NGF for 7 days, to cause full differentiation. […] After 7 days, cells were washed and the medium was either replaced to serum-free, or cells were detached and replated in serum-free medium. Cells in serum-free medium were treated either with Aβ peptides that were previously “aged” or with H2O2. Tested compounds were added together with the insults for the indicated time, unless otherwise stated.
Cells were grown and treated on glass coverslips. After treatments, cells were fixed in cold methanol for 5 min at −20° C. followed by treatment with cold acetone at 4° C. for 2 min and washing in PBS. The coverslips were fluorescently stained with DAPI (4,6-diamidino-2-phenylindole; 5 mg/ml, Sigma, Israel) an intercalating agent that enables visualization of chromatin condensation in the cell nuclei for 15 min at room temperature. Cells were washed three times with PBS, mounted in a solution of glycerol containing 22 mM 1,4 dizabicyclo(2,2,2)octane (Sigma, Israel) to prevent fading, and viewed for nuclear chromatin morphology with a fluorescence microscope. Apoptotic and viable cells were counted (200 cells per coverslip, each experiment was performed in duplicates).
The TUNEL (Terminal deoxynucleotidyl transferase (TdT) mediated dUTP nick end labeling) method enzymatically labels DNA fragments at the 3′OH ends (representing the DNA strand breaks) with fluorescein-dUPT (Boehringer Mannheim, Germany). Briefly, following treatment, cells grown on Chamber slides were fixed with paraformaldehyde solution (4%) in PBS, pH 7.4 for 30 min at room temperature. Following washing with PBS cells were permeabilized using 0.1% Triton X-100, 0.1% sodium citrate solution, for 2 min on ice (4° C.), washed with PBS and 50 μl of TUNEL reaction mixture was added on each sample for 1 hr at 37° C., in a humidified chamber. Evans Blue reagent (diluted 1:2000 in PBS) was added for 5 min and the slides were viewed with fluorescence microscope.
Cells were differentiated for 7 days and detached from the plates with Trypsin. 10^6 cells were replated in 50-mm collagen-coated plates in serum-free medium in presence or absence of various treatments. 200-g-centrifuged pellets were prepared and resuspended in 300 μl PBS. 4 ml of cold methanol (−20° C.) were added to each test tube and the fixation was carried out for 15 min at −20° C. Cells were washed in PBS, spun and resuspended in 1 ml PBS. Five microliters of Propidium iodide stock solution (Sigma; 10 mg/ml) and 5 μl of 20 mg/ml solution of RNAse A were added for 5-10 min at room temperature. Fluorescence of individual nuclei was measured using Fluorescence Activated Cell Sorter (FACScan; Becton Dickinson Corp.) excited at 488 nm wavelength and collected through 575±21 nm BP filter. The data were analyzed by Cell Quest software computer system. By this method we were able to measure DNA content of the cells (apoptotic cells have less DNA). Cells in G1 phase of cell cycle are after mitosis and have less DNA than cells in G2/M phase (before and during mitosis). Apoptotic cells were identified as the pre-G1 phase.

Data set [4] deals with rat M1 mAChR (Rattus norvegicus, UniProt P08482). The experiment in a line: PI turnover, rat M1 mAChR. Type of data set: cell-based.
Chain of rat M1 mAChR (P08482 whole entry): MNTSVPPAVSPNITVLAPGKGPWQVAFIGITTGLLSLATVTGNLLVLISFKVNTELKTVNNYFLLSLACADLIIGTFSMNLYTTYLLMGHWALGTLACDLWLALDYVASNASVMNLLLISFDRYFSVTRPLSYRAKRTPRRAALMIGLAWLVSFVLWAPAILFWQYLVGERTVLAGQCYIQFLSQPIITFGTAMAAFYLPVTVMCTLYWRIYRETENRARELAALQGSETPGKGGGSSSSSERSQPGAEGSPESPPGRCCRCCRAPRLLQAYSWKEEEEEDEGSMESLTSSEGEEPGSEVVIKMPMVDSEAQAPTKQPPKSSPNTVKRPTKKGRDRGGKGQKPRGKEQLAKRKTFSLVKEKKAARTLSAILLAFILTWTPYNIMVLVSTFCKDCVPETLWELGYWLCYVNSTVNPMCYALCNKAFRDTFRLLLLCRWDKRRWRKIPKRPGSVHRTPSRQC
Data set [5] is described as follows: Plasma levels of AF267B and its metabolite AF292 in dogs given AF267B (single dose and 13 weeks). Type of data set: in vivo, Beagle dog. The source says: Internal Standard (AF261): 2-Methyl-8-methyl-1-thia-4,8-diaza-spiro[4.5]decan-3-one; MW 200. The analytical plasma samples originate from the in-life part of this study.
The mark [6] stands for this setting: dogs, after 13 weeks daily AF267B 1.5, 3, 6 mg/kg po.
[7] abbreviates: female dogs, 13 weeks AF267B 1.5, 3, 6 mg/kg p.o.
The mark [8] stands for this setting: female dogs, single dose (1×) of AF267B 1.5, 3, 6 mg/kg p.o.
The mark [9] stands for this setting: male dogs, 13 weeks AF267B 1.5, 3, 6 mg/kg p.o.
Setting [10] is: male dogs, single dose (1×) of AF267B 1.5, 3, 6 mg/kg p.o.

In the case of `CC1=NCC2(CCN(C)CC2)S1` [AF150(S), 2,8-Dimethyl-1-thia-3,8-diaza-spiro[4.5]dec-2-ene], in data set [1], the “investigation time of the same juvenile (RID)” value is “decreased the investigation time”. Also, the “Tmax / peak in brain” value in data set [2] was in the range of 0.017 to 0.167 h. The molecule also showed a brain penetration time in data set [2] (iv) of 1 min. For the same molecule, in data set [3], the “H2O2-induced apoptosis (DAPI)” value is on record as “prevented”, the “apoptotic cell death induced by starvation (DAPI)” value is “significantly protect”, the “apoptotic death during starvation (FACS)” value was “protected cells from apoptotic death” and the “β-amyloid 25-35 induced apoptosis (TUNEL)” value was “able to block the apoptosis”. Also, the “β-amyloid increased apoptotic population (FACS)” value in data set [3] is given as “reduced the apoptotic population significantly”.
As a reminder, the AUC(0-t) is exposure summed from dosing to a finite time, without extrapolation to infinity. One may read the Cmax as the highest concentration seen after dosing. As a reminder, the Tmax is the time at which the peak concentration occurs. One may read the AUC(0-inf) as the area under the concentration-time curve extrapolated to infinity. For `CC[C@@H]1SC2(CCN(C)CC2)NC1=O` [AF267B, (S)-2-ethyl-8-methyl-1-thia-4,8-diaza-spiro[4.5]decan-3-one], in data set [4], the “PI turnover vs. CCh (as 100%)” value is recorded as “PI, rat M1 mAChR: 75%”. Moreover, in data set [5] (setting [6]), the “AUC(0-t)” value was in the range of 712 to 3947 ng·h/mL, the Cmax lay within 162 to 1352 ng/mL, the time to peak (Tmax) fell in the range of 1.5 to 3 h and the plasma half life was in the range of 1 to 2 h. The “MRT (area)” value in data set [5] (female dogs, 13 weeks) is 3.6 to 5.2 h. Further, the “AUC(0-inf)” value in data set [5] (setting [7]) was in the range of 1033 to 4164 ng·h/mL. The “MRT (area)” value in data set [5] (female dogs, single dose (1×)) lay within 4.7 to 5.3 h. Also, in data set [5] (setting [8]), the “AUC(0-inf)” value lay in the range of 985 to 3179 ng·h/mL. Further, the “MRT (area)” value in data set [5] (male dogs, 13 weeks) lay in the range of 3.0 to 4.2 h. For the same molecule, the “AUC(0-inf)” value in data set [5] (setting [9]) was 1041 to 4471 ng·h/mL. The “MRT (area)” value in data set [5] (male dogs, single dose (1×)) is 3.8 to 5 h. In addition, in data set [5] (setting [10]), the “AUC(0-inf)” value lay in the range of 800 to 3691 ng·h/mL. Besides, the “investigation time of the same juvenile (RID)” value in data set [1] is listed as “decreased the investigation time”. In data set [2], the “Tmax / peak in brain” value is 0.333 to 0.5 h and the “time after dosing detected in the brain” value fell in the range of 2 to 240 min. Moreover, in data set [3], the “H2O2-induced apoptosis (DAPI)” value is “prevented”, the “apoptotic cell death induced by starvation (DAPI)” value is “significantly protect”, the “apoptotic death during starvation (FACS)” value is recorded as “protected cells from apoptotic death” and the “β-amyloid increased apoptotic population (FACS)” value is “reduced the apoptotic population significantly”.
On to `CC[C@@H]1SC2(CCNCC2)NC1=O` [AF292, (S)-2-Ethyl-1-thia-4,8-diaza-spiro[4.5]decan-3-one], for which the “PI turnover vs. CCh (as 100%)” value in data set [4] is reported as “PI, rat M1 mAChR; 50%”. Further, the “Cmax vs. the Cmax of AF267B” value in data set [5] (dogs) is 50-90%. Besides, in data set [5] (dogs), the “T1/2 in plasma, times longer than AF267B” value is recorded as 3-5 times. The “AUC(0-t)” value in data set [5] (setting [6]) fell in the range of 616 to 2451 ng·h/mL. Moreover, in data set [5] (setting [6]), the Cmax lay within 136 to 555 ng/mL. Further, the plasma half life in data set [5] (setting [6]) was in the range of 9 to 20 h. Further, the “MRT (area)” value in data set [5] (female dogs, 13 weeks) was in the range of 5.1 to 33.7 h; in data set [5] (female dogs, single dose (1×)), 8.7 to 18.7 h; in data set [5] (male dogs, 13 weeks) it was 5 to 7.8 h; in data set [5] (male dogs, single dose (1×)), 5 to 27.3 h. The “AUC(0-inf)” value in data set [5] (setting [7]) was “F(13 w): 1866-12723; M(13 w): ng * h/ml”; in data set [5] (setting [8]) it was “F (1×): outlier, 3901-4840; M (1×): ng * h/ml”; in data set [5] (setting [9]) it was 1609 to 4170 ng·h/mL; in data set [5] (setting [10]) it was 1142 to 10932 ng·h/mL. In data set [5] (male dogs), the “Elimination half life, Mean T½ (M)” value is on record as “Mean T½ (M) = 6.34 +/− 5.9; h”.
